What was measured:
[1] = tested on: TrxR1 purified from a day 14 culture of cell line B; assay: DTNB reductase activity of 2'5'-ADP column fractions from cell line B, TrxR1; type: biochemical, Chinese Hamster; settings: 0.5 μM ATG, fractions B1-C2, depending on the fraction
Procedure: Reductases were purified from cell samples to verify the specificity of reductase inhibitors. A day 14 culture of mAb B (IgG antibody produced by CHO cell line B CHO-K1SV) was pelleted by centrifugation, washed once with PBS and re-suspended in 50 mM tris buffer, pH 7.5. The solution was homogenized and filtered at 0.2 μm prior to loading onto a column of 2′5′-ADP Sepharose 4B resin. The reductases were eluted using a linearly increasing gradient of 0 to 0.3 mM NADP^+ in the same tris buffer (Yadav, et al., Parasitol. Int., 62:193-198, 2013). The reductase activity of the collected fractions was determined using the assay described in Example 3. Additionally, western blot analysis was used to detect TrxR1 and GR in the collected fractions.
The reductase-specific inhibitors were evaluated above using purified recombinant mammalian enzymes from rat and human. […] The added activity from the two systems was approximately equal to the total activity detected in the absence of an inhibitor for each fraction. […] That is, if the reductase inhibitors were non-specifically inhibiting both enzymatic systems, the added reductase activity would have been […] than the reductase activity detected without any added inhibitor. […] The fractions with reductase activity were pooled and further evaluated at the inhibitor concentrations assayed in the antibody reduction assay.

[2] = molecular target: T1, recombinant TrxR1/Trx1 (Rattus norvegicus, UniProt O89049); assay: DTNB reductase activity assay, recombinant TrxR1/Trx1; settings: ATG concentrations higher than 0.1 μM
T1 sequence (O89049 1-499): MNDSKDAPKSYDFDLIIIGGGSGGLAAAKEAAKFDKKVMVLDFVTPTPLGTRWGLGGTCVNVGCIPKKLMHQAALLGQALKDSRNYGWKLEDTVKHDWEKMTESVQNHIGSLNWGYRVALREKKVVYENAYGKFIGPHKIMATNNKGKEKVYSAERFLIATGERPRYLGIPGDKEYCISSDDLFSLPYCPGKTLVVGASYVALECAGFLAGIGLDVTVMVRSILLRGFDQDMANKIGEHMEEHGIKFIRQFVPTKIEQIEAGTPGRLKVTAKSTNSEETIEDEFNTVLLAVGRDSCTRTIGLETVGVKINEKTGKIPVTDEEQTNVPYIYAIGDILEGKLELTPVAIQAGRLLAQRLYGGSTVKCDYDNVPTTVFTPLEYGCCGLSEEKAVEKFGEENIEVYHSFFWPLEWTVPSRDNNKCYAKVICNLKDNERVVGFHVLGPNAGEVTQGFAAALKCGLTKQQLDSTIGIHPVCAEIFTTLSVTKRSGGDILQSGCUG
Procedure: This assay allows determination of the total reductase activity in a culture sample, as well as determination of the individual contribution made by thioredoxin reductase and glutathione reductase to the total reductase activity of the sample. In this assay, culture samples (cells+media) from 3 L bioreactors were stored frozen until the end of the run, after which the samples were centrifuged to remove the cell pellet then the resulting supernatant was diluted 20-fold into 100 mM tris buffer, pH 7.4, containing 0.4 mM NADPH, 0.15 mM oxidized glutathione, and 3 mM DTNB with the indicated concentration of specific reductase inhibitor. Addition of the enzyme specific inhibitors to the samples allowed the total reductase activity to be determined as well as the individual activity from the thioredoxin and glutathione systems. Reductase activity was monitored by spectroscopic measurement of the increase in absorbance at a wavelength of 412 nm. […] The detected increase in absorbance at this wavelength is caused by the reduction of DTNB (Arnér, ESJ, Biochim. Biophys. Acta—Gen. Subj., 1790:495-526, 2009).
Briefly, culture samples were thawed on ice. […] The absorbance at a wavelength of 412 nm was determined every 30 seconds, for 20 minutes.
Activity of the reductases was calculated as follows. The change in absorbance per minute (Δ412) for each well was determined. […]

[3] = molecular target: T2, recombinant mammalian TrxR1/Trx1 (Rattus norvegicus, UniProt O89049); assay: Reduction of purified mAb B by recombinant TrxR1/Trx1, capillary electrophoresis; type: biochemical, human (Trx1); settings: 0.1 mM ATG, purified mAb B, overnight, oxygen-free
T2 construct: purchased Cayman Chemical (TrxR1); Abcam (Trx1)
T2 sequence (O89049 1-499): T1 sequence (O89049 1-499)
Procedure: (§1) Antibody reduction in cell culture supernatant samples was measured by detecting the presence of reduced species via capillary electrophoresis using standard procedures on a 2100 Bioanalyzer system (Agilent Technologies, Santa Clara, Calif.). Samples were diluted 1-6 fold depending on titer and analyzed under non-reducing conditions following 2100 Bioanalyzer standard protocols. Supernatant samples from 3 L bioreactors were stored frozen until all samples had been acquired and were ready for analysis. Samples were thawed on ice and analyzed immediately to evaluate the amount of reduced antibody in the reactor on each day of the run.
The role of each enzymatic system in antibody reduction was evaluated by determining the conditions under which these reductase systems cause antibody reduction. Using purified recombinant mammalian reductases, the thioredoxin system was evaluated by spiking purified mAb B into five solutions containing: 1) no enzymes, 2) 1 μM TrxR1, 3) 0.1 μM TrxR1, 4) […], and 5) 0.1 μM TrxR1+2.5 μM Trx1. All samples contained 0.4 mM NADPH and were stored at room temperature overnight. Digital gel-like images were obtained from microchip-based capillary electrophoresis analysis.
(§2) To confirm that the activity from a particular reductase system can translate into reduced antibody, a second method was developed to determine the impact of each reductase system on antibody reduction. The principle of the reduction assay is similar to the reductase activity assay described above. The percent of protein reduction without an inhibitor was compared to the percent of protein reduction in the presence of specific inhibitors for GR or TrxR1. In this assay, purified mAb B was spiked into solutions containing recombinant mammalian TrxR1/Trx1 or recombinant mammalian GR/GSSG and stored in an oxygen-free environment overnight. The percent of reduced mAb B antibody was evaluated using capillary electrophoresis, as set forth above.

[4] = molecular target: T3, recombinant mammalian GR/GSSG (Homo sapiens, UniProt P00390); assay: Reduction of purified mAb B by recombinant GR/GSSG, capillary electrophoresis; type: biochemical
T3 construct: purchased Abcam
T3 sequence (P00390 44-522): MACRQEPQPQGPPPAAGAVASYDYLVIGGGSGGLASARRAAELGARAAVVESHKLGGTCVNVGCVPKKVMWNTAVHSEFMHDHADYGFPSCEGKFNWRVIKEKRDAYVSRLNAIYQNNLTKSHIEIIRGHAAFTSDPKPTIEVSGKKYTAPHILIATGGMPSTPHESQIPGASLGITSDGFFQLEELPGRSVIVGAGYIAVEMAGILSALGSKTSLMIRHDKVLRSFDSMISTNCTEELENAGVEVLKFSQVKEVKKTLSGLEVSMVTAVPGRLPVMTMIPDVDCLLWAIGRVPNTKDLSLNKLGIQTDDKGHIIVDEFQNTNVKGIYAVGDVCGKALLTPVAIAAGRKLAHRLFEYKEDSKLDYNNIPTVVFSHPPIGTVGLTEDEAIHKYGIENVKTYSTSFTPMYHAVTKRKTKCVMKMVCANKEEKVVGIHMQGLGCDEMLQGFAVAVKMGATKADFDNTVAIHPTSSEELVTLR
Procedure: as §1
Using the same approach with recombinant mammalian enzymes, the glutathione system was evaluated by spiking mAb B into five solutions containing: 1) no enzyme, 2) 1 mM GSSG (oxidized glutathione), 3) 0.2 μM GR (glutathione reductase), 4) 0.2 μM GR with 1 mM GSSG, and 5) 0.02 μM GR with 1 mM GSSG. […] The results indicated a minimal mAb B reduction in the solutions containing GSSG alone. This is the result of an impurity in the GSSG. […] was reduced in the solutions containing both GR and GSSG.
as §2

Structure (SMILES): OC[C@H]1O[C@H]([S-])[C@H](O)[C@@H](O)[C@@H]1O.[Au+] [ATG, aurothioglucose]
- share of reductase activity from TrxR1, determined with the inhibitor [1]: 60-75%
- TrxR1/Trx1 reductase activity [2]: negligible
- antibody reduction in sample containing TrxR1/Trx1 [3]: complete inhibition of antibody reduction
- antibody reduction in sample containing GR/GSSG ([4]; 0.1 mM ATG, purified mAb B, overnight, oxygen-free): complete reduction of the antibody
- specificity in GR/GSSG samples at higher concentrations ([4]; 0.5 mM and 1 mM ATG, increasing intact antibody): no longer specific for the thioredoxin system
